The numbers were not newly measured in patent US20050188697A1, “Fluorinated ketone and fluorinated ethers as working fluids for thermal energy conversion” (HONEYWELL CORPORATION, priority 2004, published 2005), which cites them from elsewhere.

The conditions of data set [1]: at 1 atmosphere.
The conditions of data set [2]: for Critical Temperature, Tc: Table 4 input.

On to `FC(F)(F)C(Cl)Cl` [HCFC-123, 1,1-dichloro-2,2,2-trifluoroethane, reference compound], for which the “temperature at which toxic HCFC-133a is formed” value (thermal decomposition) was “below 300 ° F”. The “maximum temperature (thermal limitation)” value (to avoid formation of toxic HCFC-133a via thermal decomposition) was 121.0 °C. The “Flame Limits” value in data set [1] was “None”. In addition, in data set [2], the “Critical Temperature, Tc” value is 183.6 °C and the “Heat Capacity (liquid, 25° C.)” value is reported as 160.3 J/g-mol K.
On to `FC(F)CC(F)(F)F` [HFC-245fa, 1,1,1,3,3-pentafluoropropane, reference compound], for which, in data set [1], the “Flame Limits” value is recorded as “None”. Moreover, in data set [2], the “Critical Temperature, Tc” value was 151.1 °C and the “Heat Capacity (liquid, 25° C.)” value is reported as 185.5 J/g-mol K.
With `COC(F)(F)C(F)(F)C(F)(F)C(F)(F)F` [Methyl (perfluorobutyl) ether, 1-methoxynonafluorobutane], the “Flame Limits” value in data set [1] is “None”. In addition, in data set [2], the “Critical Temperature, Tc” value was 195.3 °C and the “Heat Capacity (liquid, 25° C.)” value is recorded as 293.8 J/g-mol K.
For the molecule `COC(F)(F)C(F)(F)C(F)(F)F` [Methyl (perfluoropropyl) ether, 1-methoxyheptafluoropropane], the “Flame Limits” value in data set [1] is “None”. In data set [2], the “Critical Temperature, Tc” value is 165.0 °C and the “Heat Capacity (liquid, 25° C.)” value is given as 260.0 J/g-mol K.
Consider `O=C(C(F)(F)C(F)(F)F)C(F)(C(F)(F)F)C(F)(F)F` [Perfluoroethyl perfluoroisopropyl ketone, dodecafluoro-2-methylpentan-3-one], for which, in data set [1], the “Flame Limits” value is recorded as “None”. In data set [2], the “Critical Temperature, Tc” value was 168.7 °C and the “Heat Capacity (liquid, 25° C.)” value was 348.5 J/g-mol K.
